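Five compound concentrations were applied to cells in 96-well plates for 48 hours; endpoints were derived by simple linear interpolation of the resulting dose-response curve. TGI: concentration producing complete growth inhibition.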
What was measured:
Experiment in all cases: DTP human tumour cell line panel, 48 h
[1] = test system: NCI-H23 lung
[2] = test system: HT29 colon
[3] = test system: SK-OV-3 ovarian
[4] = test system: SN12C renal
[5] = test system: MDA-MB-435
[6] = test system: SW-620 colon
[7] = test system: HCT-116 colon
[8] = test system: IGROV1 ovarian
[9] = test system: SK-MEL-28 melanoma
[10] = test system: SR leukemia
[11] = test system: HS 578T breast
[12] = test system: CCRF-CEM leukemia
[13] = test system: HOP-92 NSCLC
[14] = test system: KM12 colon
[15] = test system: M14 melanoma
[16] = test system: NCI-H226 lung
[17] = test system: UO-31 renal
[18] = test system: NCI/ADR-RES ovarian
[19] = test system: U251 CNS
[20] = test system: SK-MEL-2 melanoma
[21] = test system: ACHN renal
[22] = test system: BT-549 breast
[23] = test system: OVCAR-3 ovarian
[24] = test system: SNB-75 CNS
[25] = test system: DU-145 prostate
[26] = test system: SF-295 CNS
[27] = test system: SF-539 CNS
[28] = test system: HL-60(TB) leukemia
[29] = test system: SNB-19 CNS
[30] = test system: PC-3 prostate
[31] = test system: OVCAR-5 ovarian
[32] = test system: MDA-N
[33] = test system: K-562 leukemia
[34] = test system: MDA-MB-231 breast
[35] = test system: UACC-257 melanoma
[36] = test system: RXF 393 renal
[37] = test system: COLO 205 colon
[38] = test system: 786-0 renal
[39] = test system: OVCAR-8 ovarian
[40] = test system: HCC-2998 colon
[41] = test system: RPMI-8226 leukemia
[42] = test system: SF-268 CNS
[43] = test system: MOLT-4 leukemia
[44] = test system: CAKI-1 renal
[45] = test system: LOX IMVI melanoma
[46] = test system: UACC-62 melanoma
[47] = test system: SK-MEL-5 melanoma
[48] = test system: A498 renal
[49] = test system: NCI-H522 lung
[50] = test system: MALME-3M melanoma
[51] = test system: NCI-H460 lung
[52] = test system: EKVX NSCLC
[53] = test system: A549 NSCLC
[54] = test system: T-47D breast
[55] = test system: MCF7 breast
[56] = test system: HCT-15 colon
[57] = test system: OVCAR-4 ovarian
[58] = test system: HOP-62 NSCLC
[59] = test system: TK-10 renal

CCOC(=O)C1(C(C)=O)OC(=O)c2cnccc21 (stereo not drawn)
TGI [1]: > 100 µM
TGI [2]: > 100 µM
TGI [3]: > 100 µM
TGI [4]: > 100 µM
TGI [5]: > 100 µM
TGI [6]: > 100 µM
TGI [7]: > 100 µM
TGI [8]: > 100 µM
TGI [9]: > 100 µM
TGI [10]: > 100 µM
TGI [11]: > 100 µM
TGI [12]: > 100 µM
TGI [13]: > 100 µM
TGI [14]: > 100 µM
TGI [15]: > 100 µM
TGI [16]: > 100 µM
TGI [17]: > 100 µM
TGI [18]: > 100 µM
TGI [19]: > 100 µM
TGI [20]: > 100 µM
TGI [21]: > 100 µM
TGI [22]: > 100 µM
TGI [23]: > 100 µM
TGI [24]: > 100 µM
TGI [25]: > 100 µM
TGI [26]: > 100 µM
TGI [27]: > 100 µM
TGI [28]: > 100 µM
TGI [29]: > 100 µM
TGI [30]: > 100 µM
TGI [31]: > 100 µM
TGI [32]: > 100 µM
TGI [33]: > 100 µM
TGI [34]: > 100 µM
TGI [35]: > 100 µM
TGI [36]: > 100 µM
TGI [37]: > 100 µM
TGI [38]: > 100 µM
TGI [39]: > 100 µM
TGI [40]: > 100 µM
TGI [41]: > 100 µM
TGI [42]: > 100 µM
TGI [43]: > 100 µM
TGI [44]: > 100 µM
TGI [45]: > 100 µM
TGI [46]: > 100 µM
TGI [47]: > 100 µM
TGI [48]: > 100 µM
TGI [49]: > 100 µM
TGI [50]: > 100 µM
TGI [51]: > 100 µM
TGI [52]: > 100 µM
TGI [53]: > 100 µM
TGI [54]: > 100 µM
TGI [55]: > 100 µM
TGI [56]: > 100 µM

CCCCCCC(C)c1ccc2c(c1)C(=O)c1nc3ccncc3c(=O)n1-2 (stereo not drawn)
TGI [1]: > 31.4 µM
TGI [2]: 8.78 µM
TGI [3]: > 100 µM
TGI [4]: > 34.9 µM
TGI [5]: 1.17 µM
TGI [6]: > 30.6 µM
TGI [7]: > 36.8 µM
TGI [8]: > 34.4 µM
TGI [57]: 10.3 µM
TGI [9]: > 31.5 µM
TGI [10]: 2.57 µM
TGI [11]: 25.6 µM
TGI [12]: 5.83 µM
TGI [58]: 35.7 µM
TGI [13]: > 100 µM
TGI [14]: > 30.5 µM
TGI [15]: 11.4 µM
TGI [16]: > 32.3 µM
TGI [17]: > 35.7 µM
TGI [18]: 15.7 µM
TGI [19]: > 45 µM
TGI [20]: 18.7 µM
TGI [21]: > 29.5 µM
TGI [22]: > 33.8 µM
TGI [23]: 9.12 µM
TGI [24]: > 32.2 µM
TGI [25]: > 35.1 µM
TGI [26]: 20.2 µM
TGI [27]: 20.3 µM
TGI [28]: 1.18 µM
TGI [29]: > 33 µM
TGI [30]: 16.1 µM
TGI [31]: 21.7 µM
TGI [32]: 0.6 µM
TGI [33]: 2.91 µM
TGI [59]: > 65.8 µM
TGI [34]: > 100 µM
TGI [35]: > 32.1 µM
TGI [36]: 14.7 µM
TGI [37]: > 39.1 µM
TGI [38]: > 45.3 µM
TGI [39]: > 45.2 µM
TGI [40]: > 20.5 µM
TGI [41]: 3.97 µM
TGI [42]: > 100 µM
TGI [43]: 4.09 µM
TGI [44]: > 39.6 µM
TGI [46]: > 36.9 µM
TGI [47]: > 25.4 µM
TGI [48]: > 100 µM
TGI [50]: 0.9 µM
TGI [51]: > 34.7 µM
TGI [52]: > 43.4 µM
TGI [53]: 35.2 µM
TGI [54]: > 40.8 µM
TGI [55]: 32.7 µM
TGI [56]: > 57.7 µM
